Measurements published in patent US20120121736A1, “COMPOSITION FOR TREATING GASTRIC ULCER AND A PROCESS THEREOF” (priority 2010, published 2012).

Assays:
[1] = tested on: histamine induced duodenal ulcer; test: Histamine induced duodenal ulcer model; format: in vivo, Guinea pig
Description: EXPERIMENT 3: EFFECT ON HISTAMINE INDUCED ULCER MODEL Method:
1. Animals were fasted for 24 hours with access to water.
2. The drug was given orally 1 hour prior to the histamine administration.
3. Histamine was administered in a dose of 0.25 mg/Kg, i. m. at 30 minutes interval for 7 times and it induced 100% duodenal ulceration in guinea pig (According to the method of Watt and Eagleton 1964).
4. The animals were sacrificed after half an hour of last injection under ether anesthesia.
5. The stomach along with duodenum were removed washed thoroughly and examined for the lesions. Ulcer index and protection index were calculated.

[2] = tested on: Aspirin induced ulcer model; test: Aspirin induced gastric ulcer model; format: in vivo, rats
Description: EXPERIMENT 2: EFFECT ON ASPIRIN INDUCED GASTRIC ULCER MODEL Method: Gastric ulceration was induced by aspirin according to the method of Djahanguiri (1969). Aspirin (150 mg/Kg.) was administered per orally as a suspension in gum-acacia and the animal was sacrificed 5 hr. after the aspirin treatment and the ulcer index with protection index were calculated.

[3] = tested on: Cold Restraint Ulcer Model (CRU); test: Cold Restraint Ulcer (CRU) model; format: in vivo, rats
Description: EXPERIMENT 1: EFFECT ON COLD RESTRAINT ULCERS (CRU) MODEL METHOD: Adult rats of either sex, weighing 150-175 grams are fasted for 24 hours in metallic cages with raised mesh bottoms to prevent coprophagia and were allowed free access to water. The test drugs were administered 45 minutes before immobilizing the animals. The rats were immobilized in the restraint cage and kept at 4° C. in BOD incubator for 2 hours (According to the method of Senay and Levine 1967). The animals were sacrificed immediately after the restraint period. The abdomen was cut opened; stomach was taken out and incised along the greater curvature to observe the gastric lesions with the help of Magnascope (5× magnification) The following arbitrary scoring system was used to grade the severity and intensity of the lesions: 1. Shedding of epithelium=10 2. Petechial and frank hemorrhages=20 3. One or two ulcers=30 4. More than two ulcers=40 5. Perforated ulcers=50 The presence of any of these lesions was considered as a positive ulcerogenic response which has been shown as percentage of rats showing gastric lesions. The severity of ulcers is expressed in terms of ulcer index, which is the mean score of gastric lesions of all the rats in a group. The term Ulcer Index is defined as: Ulcer Index (U. I.)=Us+Up×10−1 where Us=Mean severity of ulcer score and Up=Percentage of animals with Ulcer incidences. The percentage protection is calculated as follows: Percentage protection=(C−T/C)×100. where C=Number of animals showing ulcer response in control group and T=Number of animals showing ulcer response in test group.

[4] = tested on: pyloric ligation induced Ulcer; test: Pyloric ligation induced ulcer model; format: in vivo, rats; conditions: in respect to the protection of Omeprazole taken as 100%
Description: EXPERIMENT 5: EFFECT ON PYLORIC LIGATION INDUCED ULCER MODEL Method: 1. Animals were fasted for 24 hours in the raised mesh bottom cages to prevent coprophagia and were allowed free access to water. 2. The control group of rats was feed with the vehicle and the experimental groups with their respective drugs 45 minutes prior to the ligation. 3. The animal was anesthetized, abdomen was cut opened under xiphoid process, and the pyloric portion of the stomach was slightly lifted and ligated avoiding any damage to the adjacent blood vessels (According to the method of Shay et al. 1945). 4. The animals were stitched and kept for 4 hours with free access to water. 5. After 4 hours the animals were sacrificed under ether anesthesia and the stomach was dissected out incised along the greater curvature. 6. The stomach was washed thoroughly and the ulcer index was scored as per in other ulcer models.

[5] = tested on: Ethanol Induced Ulcer Model; test: Alcohol (ethanol) induced gastric ulcer model; format: in vivo, rats; conditions: in respect to the protection of Omeprazole taken as 100%
Description: EXPERIMENT 4: EFFECT ON ALCOHOL INDUCED GASTRIC ULCERS IN RATS Method: 1. Adult rats of either sex were taken; weighing 150-175 grams were fasted for 24 hours with free access to water.
2. The test drugs were administered (p. o.) 45 minutes before alcohol administration.
3. 1 ml of chilled absolute alcohol was administered (p. o.) to the rats (According to the Wittetal).
4. Immediately after 1 hour, the animals were anesthetized, abdomen was cut opened stomach was taken out and incised along the greater curvature to observe the gastric lesions.
The ulcers are examined under the 5× magnification with the help of magnascope. Absolute ethanol lesions appears as blackish lesions grouped in patches of varying size, usually parallel to the major axis of the stomach.
5. The lengths of the lesions are measured and summated to give a total lesion score, then calculated and expressed in percentage.

[6] = 10 mg/Kg, standard, protection taken as 100%

COc1ccc2[nH]c([S+]([O-])Cc3ncc(C)c(OC)c3C)nc2c1 (stereo not drawn) [Omeprazole]
Volume of gastric fluid ([1]; Omeprazole 10 mg/Kg, p.o.): 1.0 ± 0.2 mL
PERCENTAGE PROTECTION ([1]; in respect to the protection of Omeprazole taken as 100%): 100%
Ulcer severity (type of lesions) Scores (No. of Guinea pig showing lesions/No. of Guinea pig tested) 20 ([1]; score 20, Omeprazole 10 mg/Kg, p.o.): 1/3
PERCENTAGE PROTECTION [2, 6]: 100%
Ulcer severity (type of lesions) Scores (No. of rats showing lesions/No. of rats tested) 10 ([2]; 10 = Shedding of epithelium, Omeprazole 20 mg/Kg, Aspirin 150 mg/Kg p.o.): 2/6
Ulcer severity (type of lesions) Scores (No. of rats showing lesions/No. of rats tested) 20 ([2]; 20 = Petechial and frank hemorrhages, Omeprazole 20 mg/Kg, Aspirin 150 mg/Kg p.o.): 1/6
Percentage of ulcer incidence (No. of rats showing ulcer/total No. of rats used) ([2]; Omeprazole 20 mg/Kg): 50 (3/6) %
PERCENTAGE PROTECTION [3, 6]: 100%
Ulcer severity (type of lesions) Scores (No. of rats showing lesions/No. of rats tested) 10 ([3]; 10 = Shedding of epithelium, Omeprazole 10 mg/Kg, p.o.): 3/10
Ulcer severity (type of lesions) Scores (No. of rats showing lesions/No. of rats tested) 20 ([3]; 20 = Petechial and frank hemorrhages, Omeprazole 10 mg/Kg, p.o.): 2/10
PROTECTION (Percentage protection) [4]: 100%
PROTECTION (Percentage protection) [5]: 100.0%
